Experimental findings from patent publication US10800752B2, “Substituted naphtho[2,3-b]furans as water-soluble prodrugs for preventing and/or treating cancer” (BOSTON BIOMEDICAL, INC., priority 2015, dated 2020) are described below.

Structures can show the parent of a compound that is named as a salt.

Data set [1] in a line: Evaluation of a conversion rate to 2-acetylnaphtho[2,3-b]furan-4,9-dione in pH 7.4 phosphate buffer solution. The class given is physicochemical. Here is the method:
For test compounds, the decrease rate of the test compounds and the conversion rate thereof to 2-acetylnaphtho[2,3-b]furan-4,9-dione in human plasma, CD1 mouse plasma, and pH 7.4 phosphate buffer solution were measured.
Test compounds were incubated at the concentration of 1 umol/L in human plasma (cat. no. 12250210, COSMO BIO), CD1 mouse plasma (cat. no. AP3054, KAC), and phosphate buffer solution at 37° C., and removed at predetermined times (0, 5, 10, 30, 60, and 120 minutes). After protein-removing treatment was performed, they are analyzed with LC-MS. It should be noted that the protein-removing treatment used acetonitrile containing: 10% volume of 1 mol/L hydrochloric acid; 1% volume of 46% citric acid; and phenytoin as an internal standard.
The measurement condition of LC-MS is as described below. LC-MS condition column: Kinetex 2.6 u PFP 100 A 50×2.1 mm Column temperature: 40° C.
Mobile phase: A: 0.1% formic acid-containing water
• B: 0.1% formic acid-containing acetonitrile A/B(min): 95/5(0)→5/95(3)→5/95(4)→95/5(4.1)→95/5(6) Flow rate: 0.4 mL/min Detection: ESI (positive mode) Injection volume: 10 uL
Measurement values are calculated from the peak area ratio in LC-MS between an internal standard material, phenytoin and an active form, 2-acetylnaphtho[2,3-b]furan-4,9-dione, and are expressed in %.
In the same way as Example 6, the incubation time was set as 120 minutes later, and the conversion rate of each of various test compounds to 2-acetylnaphtho[2,3-b]furan-4,9-dione in human plasma, CD1 mouse plasma, and pH 7.4 phosphate buffer solution was measured. A series of the present compounds were confirmed to be converted to 2-acetylnaphtho[2,3-b]furan-4,9-dione in pH 7.4 phosphate buffer solution in addition to human plasma and CD1 mouse plasma. Therefore, a series of the test compounds of the present invention were confirmed to be converted to the activated form via a route other than an enzymatic conversion.

The nature of the next data set: Solubility test. The conditions noted are these: for solubility at 24 hours: pH 2, aqueous buffer, thermodynamic from solid; for solubility (in words): pH 2.0 buffer solution.
The mark [2] stands for this setting: Phosphate buffer solution (pH 7.4), 1 umol/L, 37° C., incubation time 120 min, dimethanesulfonate salt monohydrate.
Where [3] appears, read: Phosphate buffer solution (pH 7.4), 1 umol/L, 37° C., incubation time 120 min, monohydrate.
[4] abbreviates: Phosphate buffer solution (pH 7.4), 1 umol/L, 37° C., incubation time 120 min.
[5] abbreviates: Phosphate buffer solution (pH 7.4), 1 umol/L, 37° C., incubation time 120 min, monosulfate salt monohydrate.

Protocol for Solubility test: A water-soluble prodrug was added into 50 mmol/L glycine buffer solution (pH 2.0). After shaking at room temperature for 24 hours, the mixture was filtered through a membrane filter, and then the filtrate was measured with HPLC.
The measurement condition of HPLC is as described below. HPLC condition column: Acquity UPLC BEH C18, 1.7 um, 50×2.1 mm
Mobile phase: A: 0.1% trifluoroacetic acid-containing water

With `CC(=O)c1cc2c(OC(=O)NCCNCCC(=O)O)c3ccccc3c(OC(=O)NCCNCCC(=O)O)c2o1` [Example 99, 3,3′-((((((2-acetylnaphtho[2,3-b]furan-4,9-diyl)bis(oxy))bis(carbonyl))bis(azanediyl))bis(ethane-2,1-diyl))bis(azanediyl))dipropionic acid dimethanesulfonate salt monohydrate], the “% Measurement value (conversion rate to 2-acetylnaphtho[2,3-b]furan-4,9-dione)” value (from here on “% Measurement value”) in data set [1] (setting [2]) came out at 60%.
Regarding `COC(=O)[C@@H](N)CCNC(=O)Oc1c2ccccc2c(OC(=O)NCC[C@H](N)C(=O)OC)c2oc(C(C)=O)cc12` [Example 105, Dimethyl 4,4′-((((2-acetylnaphtho[2,3-b]furan-4,9-diyl)bis(oxy))bis(carbonyl))bis(azanediyl))(2S,2′S)-bis(2-aminobutanoate)ditoluenesulfonate salt monohydrate], the solubility at 24 hours in “Solubility test” is > 5000 µg/mL. Moreover, the “% Measurement value” value in data set [1] (setting [3]) is on record as 65%.
Regarding `CCCCCCCC(=O)Oc1c2ccccc2c(OC(=O)CCCCCCC)c2oc(C(C)=O)cc12` [2-acetylnaphtho[2,3-b]furan-4,9-diyl dioctanoate, reference compound], in the data set “Solubility test” (glycine buffer solution), the solubility at 24 hours was < 0.1 µg/mL. Besides, in “Solubility test”, the “solubility (in words)” value is listed as “very low solubility”.
Consider `CC(=O)c1cc2c(OC(=O)NCCNCCC(=O)O)c3ccccc3c(O)c2o1` [Example 17, 3-((2-((((2-Acetyl-9-hydroxynaphtho[2,3-b]furan-4-yl)oxy)carbonyl)amino)ethyl)amino)prop ionic acid hydrochloride], for which the “% Measurement value” value in data set [1] (setting [4]) worked out at 80%.
Consider `CC(=O)c1cc2c(OC(=O)NCCNCCC(=O)O)c3ccccc3c(OC(=O)NCCNCCC(=O)O)c2o1` [Example 103, 3,3′-((((((2-acetylnaphtho[2,3-b]furan-4,9-diyl)bis(oxy))bis(carbonyl))bis(azanediyl))bis(ethane-2,1-diyl))bis(azanediyl))dipropionic acid 1/3 trifluoroacetate salt monohydrate], for which the “% Measurement value” value in data set [1] (Phosphate buffer solution (pH 7.4), 1 umol/L, 37° C., incubation time 120 min, trifluoroacetate salt monohydrate) is listed as 53%.
On to `CC(=O)c1cc2c(OC(=O)NCCNCC(=O)O)c3ccccc3c(OC(=O)NCCNCC(=O)O)c2o1` [Example 93, 2,2′-((((((2-acetylnaphtho[2,3-b]furan-4,9-diyl)bis(oxy))bis(carbonyl))bis(azanediyl))bis(ethane-2,1-diyl))bis(azanediyl))diacetic acid monohydrochloride dihydrate], for which, in data set [1] (Phosphate buffer solution (pH 7.4), 1 umol/L, 37° C., incubation time 120 min, monohydrochloride dihydrate), the “% Measurement value” value is recorded as 72%.
In the case of `CC(=O)c1cc2c(OC(=O)NCCNCC(F)F)c3ccccc3c(OC(=O)NCCNCC(F)F)c2o1.Cl.Cl` [Example 44], in data set [1] (pH 7.4), the “% Measurement value” value was determined as 48%.
As for `CC(=O)c1cc2c(OC(=O)NCCNCCC(=O)O)c3ccccc3c(OC(=O)NCCNCCC(=O)O)c2o1` [Example 102, 3,3′-((((((2-acetylnaphtho[2,3-b]furan-4,9-diyl)bis(oxy))bis(carbonyl))bis-(azanediyl))bis(ethane-2,1-diyl))bis(azanediyl))dipropionic acid monosulfate salt monohydrate], the “% Measurement value” value in data set [1] (setting [5]) was 59%.
Regarding `COC(=O)[C@@H](N)CCNC(=O)Oc1c2ccccc2c(OC(=O)NCC[C@H](N)C(=O)OC)c2oc(C(C)=O)cc12` [Example 106, Dimethyl 4,4′-((((2-acetylnaphtho[2,3-b]furan-4,9-diyl)bis(oxy))bis(carbonyl))bis(azanediyl))(2S,2′S)-bis(2-aminobutanoate)dibenzenesulfonate salt], the “Solubility in pH 2.0 buffer solution” value in “Solubility test” (50 mmol/L glycine buffer solution (pH 2.0), room temperature, 24 hours shaking) is >5.0 mg/mL. Also, in data set [1] (setting [4]), the “% Measurement value” value stood at 55%.
`CC(=O)c1cc2c(OC(=O)C(C)(C)C)c3ccccc3c(OC(=O)C(C)(C)C)c2o1` [2-acetylnaphtho[2,3-b]furan-4,9-diyl bis(2,2-dimethylpropanoate), reference compound]: in “Solubility test” (glycine buffer solution), the solubility at 24 hours was < 0.1 µg/mL. Besides, the “solubility (in words)” value in the data set “Solubility test” is recorded as “very low solubility”.
As to `CC(=O)c1cc2c(OC(=O)NCCNCCC(=O)O)c3ccccc3c(OC(=O)NCCNCCC(=O)O)c2o1` [Example 100, 3,3′-((((((2-acetylnaphtho[2,3-b]furan-4,9-diyl)bis(oxy))bis(carbonyl))bis(azanediyl))bis(ethane-2,1-diyl))bis(azanediyl))dipropionic acid ditoluenesulfonate salt monohydrate], in data set [1] (setting [3]), the “% Measurement value” value is listed as 76%.
As for `CC(=O)c1cc2c(O)c3ccccc3c(OC(=O)NCCCN)c2o1.Cl` [Example 20, 2-Acetyl-4-hydroxynaphtho[2,3-b]furan-9-yl (3-aminopropyl)carbamate hydrochloride], the “% Measurement value” value in data set [1] (setting [4]) is reported as 57%.
`CC(=O)c1cc2c(OC(=O)NCCNCC(=O)O)c3ccccc3c(OC(=O)NCCNCC(=O)O)c2o1` [Example 97, 2,2′-((((((2-acetylnaphtho[2,3-b]furan-4,9-diyl)bis(oxy))bis(carbonyl))bis-(azanediyl))bis(ethane-2,1-diyl))bis(azanediyl))diacetic acid monosulfate salt monohydrate]: the “% Measurement value” value in data set [1] (setting [5]) worked out at 61%.
As for `CC(=O)c1cc2c(OC(=O)NCCCN)c3ccccc3c(O)c2o1.Cl` [Example 15, 2-Acetyl-9-hydroxynaphtho[2,3-b]furan-4-yl (3-aminopropyl)carbamate hydrochloride], the “% Measurement value” value in data set [1] (setting [4]) amounted to 100%.
As to `CC(=O)c1cc2c(OC(=O)NCCN)c3ccccc3c(OC(=O)NCCN)c2o1` [Example 2, 2-Acetylnaphtho[2,3-b]furan-4,9-diyl bis((2-aminoethyl)carbamate)dihydrochloride], the “% Measurement value” value in data set [1] (setting [4]) stood at 59%.
Consider `CC(=O)c1cc2c(OC(=O)NCCNCC(=O)O)c3ccccc3c(OC(=O)NCCNCC(=O)O)c2o1` [Example 94, 2,2′-((((((2-acetylnaphtho[2,3-b]furan-4,9-diyl)bis(oxy))bis(carbonyl))bis-(azanediyl))bis(ethane-2,1-diyl))bis(azanediyl))diacetic acid dimethanesulfonate salt monohydrate], for which the “% Measurement value” value in data set [1] (setting [2]) is given as 53%.
Regarding `CC(=O)c1cc2c(OC(=O)NCCCN)c3ccccc3c(OC(=O)NCCCN)c2o1` [Example 1, 2-Acetylnaphtho[2,3-b]furan-4,9-diyl bis((3-aminopropyl)carbamate)dihydrochloride], in data set [1] (setting [4]), the “% Measurement value” value amounted to 79%.
`CC(=O)c1cc2c(OC(=O)NCCNCCC(=O)O)c3ccccc3c(OC(=O)NCCNCCC(=O)O)c2o1` [Example 101, 3,3′-((((((2-acetylnaphtho[2,3-b]furan-4,9-diyl)bis(oxy))bis(carbonyl))bis(azanediyl))bis(ethane-2,1-diyl))bis(azanediyl))dipropionic acid dibenzenesulfonate salt]: the “% Measurement value” value in data set [1] (Phosphate buffer solution (pH 7.4), 1 umol/L, 37° C., incubation time 120 min, dibenzenesulfonate salt) came to 56%.
With `COC(=O)[C@@H](N)CCNC(=O)Oc1c2ccccc2c(OC(=O)NCC[C@H](N)C(=O)OC)c2oc(C(C)=O)cc12` [Example 107, Dimethyl 4,4′-((((2-acetylnaphtho[2,3-b]furan-4,9-diyl)bis(oxy))bis(carbonyl))bis(azanediyl))(2S,2′S)-bis(2-aminobutanoate) monosulfate salt monohydrate], the “% Measurement value” value in data set [1] (setting [5]) is reported as 50%.
As for `CN[C@@H](CCNC(=O)Oc1c2ccccc2c(OC(=O)NCC[C@@H](NC)C(=O)O)c2cc(C(C)=O)oc12)C(=O)O` [Example 3, (S)-4-((((2-Acetyl-4-((((R)-3-carboxy-3-(methylamino)propyl)carbamoyl)oxy)naphtho[2,3-b]furan-9-yl)oxy)carbonyl)amino)-2-(methylamino)butanoic acid dihydrochloride], the “% Measurement value” value in data set [1] (setting [4]) is 40%.
Consider `CC(=O)c1cc2c(OC(=O)NCCNCC(=O)O)c3ccccc3c(OC(=O)NCCNCC(=O)O)c2o1` [Example 95, 2,2′-((((((2-acetylnaphtho[2,3-b]furan-4,9-diyl)bis(oxy))bis(carbonyl))bis(azanediyl))bis(ethane-2,1-diyl))bis(azanediyl))diacetic acid ditoluenesulfonate salt monohydrate], for which the “% Measurement value” value in data set [1] (setting [3]) is 54%.
